SMILES strings stand for the structures. Read-outs that look alike come from different tables or passages of the source. Where only a bound is given, the exact number is not on record here.

Drawing on patent publication US6689806B1, “Indolinone compounds as kinase inhibitors” (Sugen, Inc., priority 1999, dated 2004), this text covers IC50 for 19 molecules.

One test has as its target T1, Her2 (Homo sapiens, UniProt P04626).
T1 construct: fused on or other part: P00533 (Epidermal growth factor receptor)
Nature of the test: HER-2 ELISA: EGF receptor-HER2 chimeric receptor assay in whole cells (HER2 kinase). In kind it is cell-based. The conditions noted are these: NIH3T3 cells with EGFR/HER2 chimeric receptor, phosphotyrosine ELISA. Here is the method: Assay 1: EGF Receptor-HER2 Chimeric Receptor Assay In Whole Cells.
HER2 kinase activity in whole EGFR-NIH3T3 cells was measured as described below:
1. An NIH3T3 cell line overexpressing a chimeric receptor containing the EGFR extracellular domain and intracellular HER2 kinase domain can be used for this assay.
3. Resuspend cells in seeding medium (DMEM, 0.5% bovine serum), and count the cells using trypan blue. Viability above 90% is acceptable. Seed cells in DMEM medium (0.5% bovine serum) at a density of 10,000 cells per well, 100 μL per well, in a 96 well microtiter plate. Incubate seeded cells in 5% CO2 at 37° C. for about 40 hours.
1. Check seeded cells for contamination using an inverted microscope. Dilute drug stock (10 mg/mL in DMSO) 1:10 in DMEM medium, then transfer 5 μL to a TBST well for a final drug dilution of 1:200 and a final DMSO concentration of 1%. Control wells receive DMSO alone. Incubate in 5% CO2 at 37° C. for two hours.
2. Prepare EGF ligand: dilute stock EGF in DMEM so that upon transfer of 10 μL dilute EGF (1:12 dilution), 100 nM final concentration is attained.
4. After 120 minutes incubation with drug, add prepared […] ligand to cells, 10 μL per well, to a final concentration of 100 nM. Control wells receive DMEM alone. Incubate, shaking, at room temperature, for 5 minutes.
5. Remove drug, EGF, and DMEM. Wash cells twice with PBS. Transfer HNTG* to cells, 100 μL per well. Place on ice for 5 minutes. Meanwhile, remove blocking buffer from other ELISA plate and wash with TBST as described above.
6. With a pipette tip securely fitted to a micropipettor, scrape cells from plate and homogenize cell material by repeatedly aspirating and dispensing the HNTG* lysis buffer. Transfer lysate to a coated, blocked, and washed ELISA plate. Incubate shaking at room temperature for one hour.
7. Remove lysate and wash 4 times with TBST. Transfer freshly diluted anti-Ptyr antibody to ELISA plate at 100 μL per well. Incubate shaking at room temperature for 30 minutes in the presence of the anti-Ptyr antiserum (1:3000 dilution in TBST).
8. Remove the anti-Ptyr antibody and wash 4 times with TBST. Transfer the freshly diluted TAGO anti-rabbit IgG antibody to the ELISA plate at 100 μL per well. Incubate shaking at room temperature for 30 minutes (anti-rabbit IgG antibody: 1:3000 dilution in TBST).
9. Remove TAGO detection antibody and wash 4 times with TBST. Transfer freshly prepared ABTS/H2O2 solution to ELISA plate, 100 μL per well. Incubate shaking at room temperature for 20 minutes. (ABTS/H2O2 solution: 1.0 μL 30% H2O2 in 10 mL ABTS stock).
10. Stop reaction by adding 50 μL 5N H2SO4 (optional), and determine O.D. at 410 nm.
11. The maximal phosphotyrosine signal is determined by subtracting the value of the negative controls from the positive controls. The percent inhibition of phosphotyrosine content for extract-containing wells is then calculated, after subtraction of the negative controls.
For orientation: In an ELISA, binding on a coated surface is turned into a signal by an enzyme label.

For the next test, the target named is PDGFR (Homo sapiens, UniProt P09619). Nature of the test: Biochemical PDGFR assay (ELISA). More on the design: expressed in transfected cells; host or cells: NIH 3T3. Here is the method:
This assay measures the in vitro kinase activity of PDGFR using ELISA.
6. PDGFR-β expressing NlH 3T3 cell lysate.
1. Coat Corning 96 well ELISA plates with 0.5 μg 28D4C10 in 100 μL PBS per well, store overnight at 4° C.
5. Dilute lysate in HNTG (10 μg lysate/100 μL HNTG)
(§1) 6. Add 100 μL of diluted lysate to each well. Shake at room temperature for 60 min.
8. Add 80 μL working kinase buffer mix to ELISA plate containing captured PDGFR.
9. Dilute test compound 1:10 in TBS in 96-well polypropylene plates (i.e., 10 μL compound+90 μL TBS).
10. Add 10 μL diluted test compound to ELISA plate.
11. Incubate for 30 minutes while shaking at room temperature.
12. Add 10 μL ATP directly to all wells except negative control well (final well volume should be approximately 100 μL with 20 μM ATP in each well.) Incubate 30 minutes while shaking.
13. After 30 minutes, stop reaction by adding 10 μL of 200 mM EDTA (pH 8.0) to each well.
(§2) 15. Add 100 μL anti-phosphotyrosine (1:3000 dilution in TBST) per well. Incubate 30-45 min. at room temperature, with shaking.
(§3) 17. Add 100 μL Biosource Goat anti-rabbit IgG peroxidase conjugate (1:2000 dilution in TBST) to each well. Incubate 30 min. at room temperature, with shaking.
(§4) 19. Add 100 μL of ABTS/H2O2 solution to each well.
22. Read assay on Dynatech MR7000 ELISA reader: test filter: 410 nM, reference filter: 630 nM.

The target in a further test is EGFR (Homo sapiens, UniProt P00533). Nature of the test: Biochemical EGFR assay (ELISA). More on the design: A431 cell lysate; endogenous in cells; host or cells: A431. Here is the method: This assay measures the in vitro kinase activity of EGFR using ELISA.
Chain of EGFR (P00533 25-1210): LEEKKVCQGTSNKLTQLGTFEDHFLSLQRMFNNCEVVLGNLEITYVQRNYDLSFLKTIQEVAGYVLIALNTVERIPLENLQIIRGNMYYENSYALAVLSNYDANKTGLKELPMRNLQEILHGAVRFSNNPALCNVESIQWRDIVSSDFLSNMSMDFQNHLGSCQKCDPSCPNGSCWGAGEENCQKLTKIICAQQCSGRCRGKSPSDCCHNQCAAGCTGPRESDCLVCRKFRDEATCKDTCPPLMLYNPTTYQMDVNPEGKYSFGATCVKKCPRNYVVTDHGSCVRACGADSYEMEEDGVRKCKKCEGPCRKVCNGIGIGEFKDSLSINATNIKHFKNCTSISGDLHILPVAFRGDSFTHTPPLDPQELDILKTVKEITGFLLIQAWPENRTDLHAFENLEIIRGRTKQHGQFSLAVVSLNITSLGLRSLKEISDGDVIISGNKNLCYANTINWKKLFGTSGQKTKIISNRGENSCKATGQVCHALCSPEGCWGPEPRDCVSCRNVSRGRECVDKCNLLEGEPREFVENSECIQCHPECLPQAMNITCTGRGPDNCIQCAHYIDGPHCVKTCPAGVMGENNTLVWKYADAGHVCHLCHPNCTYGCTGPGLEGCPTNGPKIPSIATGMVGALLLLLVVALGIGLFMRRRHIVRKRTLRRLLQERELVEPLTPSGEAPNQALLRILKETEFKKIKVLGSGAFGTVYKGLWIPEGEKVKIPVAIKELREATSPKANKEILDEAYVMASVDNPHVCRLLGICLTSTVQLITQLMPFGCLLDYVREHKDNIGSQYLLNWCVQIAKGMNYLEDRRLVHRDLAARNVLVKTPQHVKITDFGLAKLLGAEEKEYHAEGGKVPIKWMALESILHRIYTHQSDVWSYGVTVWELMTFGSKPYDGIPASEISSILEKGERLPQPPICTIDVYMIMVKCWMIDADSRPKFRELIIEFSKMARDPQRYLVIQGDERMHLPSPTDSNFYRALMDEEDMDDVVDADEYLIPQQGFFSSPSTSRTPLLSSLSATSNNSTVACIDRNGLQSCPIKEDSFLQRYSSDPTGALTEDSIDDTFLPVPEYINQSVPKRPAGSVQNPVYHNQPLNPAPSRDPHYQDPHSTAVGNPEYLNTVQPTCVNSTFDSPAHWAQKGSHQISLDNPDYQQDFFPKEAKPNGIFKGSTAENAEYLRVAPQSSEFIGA
1. Coat Coming 96 well ELISA plates with 0.5 μg SUMOl in 100 μL PBS per well, store overnight at 4° C.
5. Dilute lysate in PBS (7 μg lysate/100 μL PBS).
as §1
8. Add 120 μL TBS to ELISA plate containing captured EGFR.
9. Dilute test compound 1:10 in TBS in 96-well polypropylene plates (ie. 10 μL compound+90 μL TBS).
10. Add 13.5 μL diluted test compound to ELISA plate.
13. After 5 minutes, stop reaction by adding 16.5 μL of 200 mM EDTA (pH 8.0) to each well, shaking continuously. After the EDTA has been added, shake for 1 mm.
as §2, §3, §4
22. Read assay on Dynatech MR7000 ELISA reader. Test Filter: 410 nM Reference Filter: 630 Nm.

[1] abbreviates: Table 5, in vitro kinase activity, read-out: PDGFr biochem IC50.
Where [2] appears, read: Table 5, in vitro kinase activity, read-out: EGFr biochem IC50.
Where [3] appears, read: Table 4, in vitro kinase activity, read-out: bio PDGFr IC50.
Setting [4] is: Table 4, in vitro kinase activity, read-out: bio EGFr IC50.
The mark [5] stands for this setting: Table 7, in vitro kinase activity, read-out: EGFr biochem IC50.

Chain of PDGFR (P09619 33-1106): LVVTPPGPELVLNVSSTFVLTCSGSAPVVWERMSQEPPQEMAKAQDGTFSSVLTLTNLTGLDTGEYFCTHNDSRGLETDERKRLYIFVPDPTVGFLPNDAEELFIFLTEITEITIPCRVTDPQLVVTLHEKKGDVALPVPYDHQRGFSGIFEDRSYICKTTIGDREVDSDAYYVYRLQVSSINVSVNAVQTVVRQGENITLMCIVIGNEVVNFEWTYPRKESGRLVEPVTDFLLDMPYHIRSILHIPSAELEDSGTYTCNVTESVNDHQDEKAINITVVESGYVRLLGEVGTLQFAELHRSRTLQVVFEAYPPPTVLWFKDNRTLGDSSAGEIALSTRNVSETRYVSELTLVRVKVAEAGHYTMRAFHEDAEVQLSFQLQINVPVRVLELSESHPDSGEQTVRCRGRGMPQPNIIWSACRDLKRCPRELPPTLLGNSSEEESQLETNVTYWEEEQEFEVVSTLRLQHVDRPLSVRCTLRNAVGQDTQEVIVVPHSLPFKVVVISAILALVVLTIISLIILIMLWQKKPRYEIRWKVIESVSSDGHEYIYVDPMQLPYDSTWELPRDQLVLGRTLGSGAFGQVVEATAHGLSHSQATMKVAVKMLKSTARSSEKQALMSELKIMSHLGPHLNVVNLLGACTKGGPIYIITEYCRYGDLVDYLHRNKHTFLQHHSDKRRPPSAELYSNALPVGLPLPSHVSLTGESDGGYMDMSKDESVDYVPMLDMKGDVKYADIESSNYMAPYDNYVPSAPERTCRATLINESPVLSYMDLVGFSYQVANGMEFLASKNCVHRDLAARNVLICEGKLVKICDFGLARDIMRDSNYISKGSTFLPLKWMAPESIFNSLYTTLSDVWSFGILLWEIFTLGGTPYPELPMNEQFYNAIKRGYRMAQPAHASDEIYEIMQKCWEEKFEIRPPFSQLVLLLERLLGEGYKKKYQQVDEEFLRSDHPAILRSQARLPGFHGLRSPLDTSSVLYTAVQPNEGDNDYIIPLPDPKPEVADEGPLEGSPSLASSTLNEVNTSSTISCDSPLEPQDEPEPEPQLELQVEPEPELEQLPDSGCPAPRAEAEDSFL
T1 sequence (P04626 676-1255 limits assumed): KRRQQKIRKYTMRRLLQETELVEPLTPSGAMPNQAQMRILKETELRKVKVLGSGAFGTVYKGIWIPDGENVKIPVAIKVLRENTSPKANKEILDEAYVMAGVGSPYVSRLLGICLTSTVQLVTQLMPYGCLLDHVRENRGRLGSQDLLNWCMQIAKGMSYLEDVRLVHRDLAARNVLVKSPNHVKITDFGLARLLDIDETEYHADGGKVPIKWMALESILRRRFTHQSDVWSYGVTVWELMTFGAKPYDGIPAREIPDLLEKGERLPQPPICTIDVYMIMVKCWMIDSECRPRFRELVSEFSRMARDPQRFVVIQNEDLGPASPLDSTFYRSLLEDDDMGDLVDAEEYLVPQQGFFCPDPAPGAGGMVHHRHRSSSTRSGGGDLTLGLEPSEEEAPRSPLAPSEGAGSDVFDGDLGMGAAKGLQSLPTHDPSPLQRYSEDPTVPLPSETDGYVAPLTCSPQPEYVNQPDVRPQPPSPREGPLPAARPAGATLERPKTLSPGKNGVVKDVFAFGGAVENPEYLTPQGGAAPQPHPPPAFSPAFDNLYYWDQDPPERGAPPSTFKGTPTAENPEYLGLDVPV

In general, IC50 refers to the point on the concentration scale where inhibition reaches its midpoint. Turning to `CC(C)(C)c1cc(CC2C(=O)Nc3ccc(Cl)cc32)cc(Br)c1O` (racemic) [AAI-28, 3-(3-Bromo-5-tert-butyl-4-hydroxybenzyl)-5-chloro-1,3-dihydroindol-2-one], the IC50 was 48 µM against Her2 (Table 5), above 100 µM at PDGFR (setting [1]) and above 100 µM on EGFR (setting [2]).
Turning to `COc1ccc2c(c1)NC(=O)C2Cc1ccc(OC)c(-c2ccsc2)c1` (stereo not drawn) [AAI-1, 6-Methoxy-3-(4-methoxy-3-thiophen-3-ylbenzyl)-1,3-dihydroindol-2-one], the IC50 at Her2 (Table 5), at PDGFR (setting [1]) and at EGFR (setting [2]) was above 100 µM each time.
For the molecule `O=C(Nc1ccc2c(c1)NC(=O)C2Cc1cc(Cl)cc(Cl)c1O)C1CCCC1` (stereo not drawn) [AAI-2, Cyclopentanecarboxylic Acid [3-(3,5-Dichloro-2-hydroxybenzyl)-2-oxo-2,3-dihydro-1H-indol-6-yl]-amide], the IC50 is 50.5 µM against Her2 (Table 5), above 100 µM at PDGFR (setting [1]) and above 100 µM on EGFR (setting [2]).
With `O=C(Nc1ccc2c(c1)NC(=O)C2Cc1cc(Cl)ccc1O)C1CCCC1` (stereo not drawn) [AAI-3, Cyclopentanecarboxylic Acid [3-(5-Chloro-2-hydroxybenzyl)-2-oxo-2,3-dihydro-1H-indol-6-yl]-amide], the IC50 against Her2 (Table 5), on PDGFR (setting [1]) and at EGFR (setting [2]) was above 100 µM in each case.
`COc1ccc(-c2cc(CC3C(=O)Nc4ccccc43)c(O)cc2OC)cc1` (stereo not drawn) [AAI-4, 3-(4-Hydroxy-6,4′-dimethoxybiphenyl-3-ylmethyl)-1,3-dihydroindol-2-one]: the IC50 against Her2 (Table 5), at PDGFR (setting [1]) and at EGFR (setting [2]) was above 100 µM throughout.
Turning to `O=C1Nc2cccc(CCO)c2C1Cc1ccc(Br)cc1` (stereo not drawn) [AAI-14, 3-(4-Bromobenzyl)-4-(2-hydroxyethyl)-1,3-dihydroindol-2-one], the 50% inhibitory concentration (IC50) at Her2 (Table 5), on PDGFR (setting [1]) and on EGFR (setting [2]) was above 100 µM in each case.
As for `CC(C)c1cc(CC2C(=O)Nc3ccc(Cl)cc32)cc(C(C)C)c1OCCN1CCOCC1` (stereo not drawn) [AAI-15, 5-Chloro-3-[3,5-diisopropyl-4-(2-morpholin-4-ylethoxy)-benzyl]-1,3-dihydroindol-2-one], the IC50 against Her2 (Table 5), on PDGFR (setting [1]) and at EGFR (setting [2]) was above 100 µM throughout.
Consider `Cc1[nH]c(CC2C(=O)Nc3ccc(Br)cc32)c(C)c1CCCN(C)C` (stereo not drawn) [AAI-19, 5-Bromo-3-[4-(3-dimethylaminopropyl)-3,5-dimethyl-1H-pyrrol-2-ylmethyl]-1,3-dihydroindol-2-one], for which the IC50 against Her2 (Table 5) was above 100 µM; at PDGFR (setting [1]), 0.25 µM; at EGFR (setting [2]), above 100 µM.
Take `O=C1Nc2cc(-c3ccccc3)ccc2C1Cc1cc(Br)ccc1O` (stereo not drawn) [AAI-26, 3-(5-Bromo-2-hydroxybenzyl)-6-phenyl-1,3-dihydroindol-2-one]: the 50% inhibitory concentration (IC50) against Her2 (Table 5) is 67.6 µM; on PDGFR (setting [1]), above 100 µM; at EGFR (setting [2]), above 100 µM.
On to `COc1ccc(C=C2C(=O)Nc3cc(-c4cccnc4)ccc32)cc1-c1cccs1` [AHI-1, 3-(4-Methoxy-3-thiophen-2-yl-benzylidene)-6-pyridin-3-yl-1,3-dihydroindol-2-one], for which the concentration for half-maximal inhibition (IC50) against Her2 (Table 4), on PDGFR (setting [3]) and at EGFR (setting [4]) was above 100 µM throughout.
`O=C1Nc2cc(-c3cccnc3)ccc2C1=Cc1ccccc1O` [AHI-2, 3-(2-Hydroxybenzylidene)-6-pyridin-3-yl-1,3-dihydroindol-2-one]: the figures for the 50% inhibitory concentration (IC50) against Her2 (Table 4), on PDGFR (setting [3]) and on EGFR (setting [4]) were 31.5 µM, 49.9 µM and above 100 µM, respectively.
The matching figures for `COc1ccc(C=C2C(=O)Nc3cc(-c4cccs4)ccc32)cc1-c1cccs1` [AHI-3, 3-(4-Methoxy-3-thiophen-2-yl-benzylidene)-6-thiophen-2-yl-1,3-dihydroindol-2-one]: above 100 µM, above 100 µM and above 100 µM.
The corresponding values for `O=C1Nc2cc(-c3cccs3)ccc2C1=Cc1ccccc1O` [AHI-4, 3-(2-Hydroxybenzylidene)-6-thiophen-2-yl-1,3-dihydroindol-2-one] are above 100 µM, above 100 µM and above 100 µM.
The corresponding values for `COc1ccc(C=C2C(=O)Nc3cc(-c4ccsc4)ccc32)cc1-c1cccs1` [AHI-5, 3-(4-Methoxy-3-thiophen-2-yl-benzylidene)-6-thiophen-3-yl-1,3-dihydroindol-2-one] are above 100 µM, above 100 µM and above 100 µM.
For `O=C1Nc2cc(-c3ccsc3)ccc2C1=Cc1ccccc1O` [AHI-6, 3-(2-Hydroxybenzylidene)-6-thiophen-3-yl-1,3-dihydroindol-2-one], the values for the IC50 against Her2 (Table 4), at PDGFR (setting [3]) and on EGFR (setting [4]) were 57.3 µM, 76.6 µM and above 100 µM, respectively.
With `Cc1[nH]c(C=C2C(=O)Nc3cc(-c4cccnc4)ccc32)c(C)c1CCCN(C)C` [AHI-7, 3-[4-(3-Dimethylaminopropyl)-3,5-dimethyl-1H-pyrrol-2-ylmethylene]-6-pyridin-3-yl-1,3-dihydroindol-2-one], the half-maximal inhibitory concentration (IC50) came to 16.8 µM against Her2 (Table 4), 0.02 µM on PDGFR (setting [3]) and 12.1 µM at EGFR (setting [4]).
As to `COCCc1cccc2c1CC(=O)N2` [IN-018, 4-(2-Methoxy-ethyl)-1,3-dihydro-indol-2-one], the 50% inhibitory concentration (IC50) at Her2 (Table 7) and on EGFR (setting [5]) was above 100 µM in each case.
For the molecule `CCOCCc1cccc2c1CC(=O)N2` [IN-019, 4-(2-Ethoxy-ethyl)-1,3-dihydro-indol-2-one], the IC50 at Her2 (Table 7) and at EGFR (setting [5]) was above 100 µM each time.
With `O=C1Cc2c(CCOc3cncc(Cl)c3)cccc2N1` [IN-021, 4-[2-(5-Chloro-pyridin-3-yloxy)-ethyl]1,3-dihydro-indol-2-one], the IC50 at Her2 (Table 7) and at EGFR (setting [5]) was above 100 µM in each case.
